According to PubChem BioAssay AID624383 (Sanford-Burnham Center for Chemical Genomics, 2012):
Activity calls are given as the source filed them. How the calls were made is not given here.

biological target: Small ubiquitin-related modifier 1 (Homo sapiens) (UniProt P63165); assay: SUMO1 protein-protein binding blockers, potency – biochemical, FRET, dose response (AID 624383); conditions: SUMO1 protein-protein interaction, in vitro
Sequence (P63165 whole entry, looked up): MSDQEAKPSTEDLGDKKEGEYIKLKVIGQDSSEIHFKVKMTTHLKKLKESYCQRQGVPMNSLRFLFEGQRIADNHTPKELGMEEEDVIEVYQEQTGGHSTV

| IC50 | Structure (SMILES) |
| --- | --- |
| inactive | C[c-]1[c-](C)[c-](C)[c-](C)[c-]1C.[Fe].c1cc2nccc(N3CCCC3)[c-]2c1 (stereo not drawn) |
| 1.81 µM | C=Cc1c(C)c2cc3[nH]c(cc4nc(cc5nc(cc1[nH]2)C(C)=C5CCC(=O)O)C(CCC(=O)O)=C4C)c(C)c3C=C |

| Structure (SMILES) | IC50 |
| --- | --- |
| CCN(CC)P(=O)(NC(=O)C(Cl)(Cl)Cl)N(CC)CC.[Cl-].[Cl-].[Cl-].[Nd+3] | 0.601 µM |
